“Also recorded” adds a separate entry of the source.
Tests used:
[1] = molecular target: T1, AMPK (Homo sapiens, UniProt Q13131); experiment: Activation and Thr-172 phosphorylation of endogenous AMPK in HeLa cells with or without stably expressed LKB1; format: cell-based; details: 2 mM AICA riboside or 10 mM phenformin, 60 min
T1 construct: Endogenous AMPK was immunoprecipitated from the cell extracts and assayed; endogenous in cells; host or cells: HeLa cells (control, or stably expressing wild type or kinase-dead LKB1)
Description: FIG. 18: Restoration of the ability of AMPK to be activated by AICA riboside and phenformin in HeLa cells by expression of LKB1. Control HeLa cells (lanes 1, 2, 3), HeLa cells expressing wild type (WT) LKB1 (lanes 4, 5, 6) and kinase dead (D194A, KD) mutant LKB1 (lanes 7, 8, 9) were either left unstimulated or treated with 2 mM AICA riboside or 10 mM phenformin for 60 min and lysed. (A) Endogenous AMPK was immunoprecipitated from the cell extracts and assayed. (B) The cell lysates was immunoblotted with antibodies recognising AMPKα1 phosphorylated at Thr172 or total AMPKα1; the results were analysed using the LI-COR IR Odyssesy™ imager as described under Materials and Methods, and are expressed as a ratio of the two signals. (C) The cell lysates was analysed by Western blotting and the membranes probed with antibodies recognising ACC phosphorylated at Ser-79, or streptavidin to determine total […]. The results were analysed using the LI-COR IR imager as for (B).
AMPK [14]and AMPKK [34] were assayed, and units defined, as described previously. Rapid lysis of cells for AMPK assays was as described previously. Assays were carried out in triplicate and results are expressed as mean ± standard deviation.
To analyse phosphorylation of ACC, samples were analysed by SDS-PAGE, transferred to nitrocellulose (BioRad) and incubated in Odyssey™ Blocking buffer containing 0.2% Tween-20 for 1 h. Anti-pACC antibody (1.46 μg/ml in blocking buffer) was then added and left shaking for 1 h. The membranes were washed 6×5 min with TBS (10 mM Tris-HCl, pH 7.4, 0.5M NaCl) plus Tween-20 (0.2%). The membranes were immersed in blocking buffer containing 0.2% Tween-20 and 1 μg/ml anti-sheep IgG conjugated to JR dye 680 (Molecular Probes, Leiden, The Netherlands) and 1 μg/ml streptavidin conjugated to IR Dye 800 (Rockland Inc., Philadelphia, Pa.) and left shaking for 1 h, protected from light. The membranes were then washed 6×5 min using TBS-Tween (0.2%) and 1×5 min in PBS. The membranes were scanned in two different channels using the Odyssey™ IR imager, the results quantified using Odyssey™ software and expressed as a ratio of the signal obtained with the pACC antibody to that obtained with streptavidin. Analysis of phosphorylation of GST-α1 catalytic domain was similar except that the 4-12% Bis-Tris gels were used, and the membranes were simultaneously probed for 1 h with the sheep anti-pT172 and anti-AMPKα1-catalytic domain antibodies, directly labelled with the IR dye 680 and IR Dye 800 respectively, according to manufacturers' instructions.

[2] = molecular target: T2, LKB1 (Mus musculus, UniProt Q9WTK7); experiment: Activity of endogenous LKB1 immunoprecipitated from LKB1+/+ MEFs, LKBtide substrate; format: cell-based; details: 1 h
T2 construct: AMPKα1/a2 and LKB1 were immunoprecipitated from the cell lysates; endogenous in cells; host or cells: LKB1+/+ MEFs
Description: FIG. 28. […] (A) LKB1^+/+ MEFs were either left untreated or stimulated with the indicated concentrations of phenformin (Phen) for 1 h. AMPKα1/a2 and LKB1 were immunoprecipitated from the cell lysates, and in vitro kinase activity towards the AMARA and LKBtide peptides respectively, were measured as described in Materials and Methods (Example 4). (B) To confirm equal expression of the kinases in each sample, cell lysates were subjected to SDS-PAGE and western blot analysis with the indicated antibodies. The phospho pT172 antibody (P-AMPK) recognises the phosphorylated T-loop of AMPKα1. […] AMPKα1 and the indicated AMPK-related kinases were immunoprecipitated from the cell lysates, and in vitro kinase activity towards the AMARA peptide measured as described in Materials and Methods. […]
Cell culture, stimulation and cell lysis. […] Protein concentrations were determined by the Bradford method with bovine serum albumin as the standard (Bradford, 1976).
0.1-1 mg Hela or MEF cell lysate protein was incubated at 4° C. for 1 h on a shaking platform with 5 μl of protein G-Sepharose conjugated to 5 μg of human LKB1 antibody. […] The p81 membranes were washed in phosphoric acid, and the incorporated radioactivity was measured by scintillation counting as described previously for MAP kinase (Alessi et al., 1995).

[3] = HeLa cells stably expressing wild type LKB1
[4] = control HeLa cells not expressing LKB1

T1 sequence (Q13131 whole entry): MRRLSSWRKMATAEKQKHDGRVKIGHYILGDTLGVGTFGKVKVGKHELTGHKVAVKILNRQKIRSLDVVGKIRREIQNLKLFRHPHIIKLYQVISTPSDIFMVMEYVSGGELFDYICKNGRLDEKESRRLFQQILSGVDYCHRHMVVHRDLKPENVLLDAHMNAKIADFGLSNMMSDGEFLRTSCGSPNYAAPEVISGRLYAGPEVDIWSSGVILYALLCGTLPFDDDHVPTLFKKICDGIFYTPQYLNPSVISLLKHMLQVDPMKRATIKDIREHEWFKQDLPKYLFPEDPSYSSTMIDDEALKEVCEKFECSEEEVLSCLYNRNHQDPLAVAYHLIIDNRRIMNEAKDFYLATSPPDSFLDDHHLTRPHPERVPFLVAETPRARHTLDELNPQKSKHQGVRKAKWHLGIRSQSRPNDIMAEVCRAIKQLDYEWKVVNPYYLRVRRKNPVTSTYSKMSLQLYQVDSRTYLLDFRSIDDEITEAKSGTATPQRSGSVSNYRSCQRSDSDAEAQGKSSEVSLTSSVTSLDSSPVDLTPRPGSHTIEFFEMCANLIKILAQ
T1 sequence (Q9Y478 2-270 partner limits assumed): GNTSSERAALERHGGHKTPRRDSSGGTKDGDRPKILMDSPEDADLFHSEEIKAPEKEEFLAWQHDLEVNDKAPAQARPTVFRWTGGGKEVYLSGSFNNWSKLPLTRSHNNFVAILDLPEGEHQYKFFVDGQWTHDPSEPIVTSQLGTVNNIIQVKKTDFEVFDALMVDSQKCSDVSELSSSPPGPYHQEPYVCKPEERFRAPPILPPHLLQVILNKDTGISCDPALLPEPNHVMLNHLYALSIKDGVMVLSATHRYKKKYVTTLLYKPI
T1 sequence (P54619 whole entry partner): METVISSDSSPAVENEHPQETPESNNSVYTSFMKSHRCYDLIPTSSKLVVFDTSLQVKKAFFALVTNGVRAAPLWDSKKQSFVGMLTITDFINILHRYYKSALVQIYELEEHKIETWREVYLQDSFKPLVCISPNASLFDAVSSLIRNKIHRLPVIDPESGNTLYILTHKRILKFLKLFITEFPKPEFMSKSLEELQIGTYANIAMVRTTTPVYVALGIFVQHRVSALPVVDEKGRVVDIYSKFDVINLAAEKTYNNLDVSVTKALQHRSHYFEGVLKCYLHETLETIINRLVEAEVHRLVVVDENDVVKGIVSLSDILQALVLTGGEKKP
T2 sequence (Q9WTK7 1-433 limits assumed): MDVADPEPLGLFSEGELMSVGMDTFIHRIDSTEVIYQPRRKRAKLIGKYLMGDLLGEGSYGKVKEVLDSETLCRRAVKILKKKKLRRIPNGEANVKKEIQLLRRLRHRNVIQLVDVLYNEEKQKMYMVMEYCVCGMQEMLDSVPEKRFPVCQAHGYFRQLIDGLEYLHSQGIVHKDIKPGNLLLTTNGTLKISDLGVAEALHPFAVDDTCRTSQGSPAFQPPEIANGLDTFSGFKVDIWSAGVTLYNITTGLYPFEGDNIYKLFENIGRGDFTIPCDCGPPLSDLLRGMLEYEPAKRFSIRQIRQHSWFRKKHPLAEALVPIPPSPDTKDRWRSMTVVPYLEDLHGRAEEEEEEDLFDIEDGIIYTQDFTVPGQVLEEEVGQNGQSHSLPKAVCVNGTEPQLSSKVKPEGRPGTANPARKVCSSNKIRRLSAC
T2 sequence (Q3UUJ4 whole entry partner): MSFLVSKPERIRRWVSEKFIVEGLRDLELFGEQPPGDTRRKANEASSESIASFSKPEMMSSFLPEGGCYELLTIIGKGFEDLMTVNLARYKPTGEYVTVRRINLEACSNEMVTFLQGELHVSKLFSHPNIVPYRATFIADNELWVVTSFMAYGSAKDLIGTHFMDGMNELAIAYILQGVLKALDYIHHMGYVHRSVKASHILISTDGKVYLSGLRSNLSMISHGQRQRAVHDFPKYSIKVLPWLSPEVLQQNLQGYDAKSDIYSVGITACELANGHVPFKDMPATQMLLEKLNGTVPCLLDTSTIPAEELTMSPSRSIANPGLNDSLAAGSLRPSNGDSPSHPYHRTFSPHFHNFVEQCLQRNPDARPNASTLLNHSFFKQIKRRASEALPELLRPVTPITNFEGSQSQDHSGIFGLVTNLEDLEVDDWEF
T2 sequence (Q06138 whole entry partner): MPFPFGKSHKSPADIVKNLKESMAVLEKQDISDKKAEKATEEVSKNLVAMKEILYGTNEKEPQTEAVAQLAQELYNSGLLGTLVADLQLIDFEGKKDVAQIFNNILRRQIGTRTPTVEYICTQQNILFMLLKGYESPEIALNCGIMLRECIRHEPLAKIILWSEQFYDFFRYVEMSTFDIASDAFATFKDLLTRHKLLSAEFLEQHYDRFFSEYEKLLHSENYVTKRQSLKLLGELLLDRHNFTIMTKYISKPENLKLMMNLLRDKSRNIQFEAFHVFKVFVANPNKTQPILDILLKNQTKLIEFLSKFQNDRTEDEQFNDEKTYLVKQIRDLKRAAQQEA

Compound | activation of AMPK [1, 3] | phosphorylation of Thr-172 on the AMPKα subunit [1, 3] | activation of AMPK [1, 4] | LKB1 activity [2]
[H]/N=C(/N)N/C(=N/[H])NCCc1ccccc1 [phenformin] | robust activation; also recorded: larger activation of AMPK | restored | neither AICA riboside nor phenformin activated AMPK | did not stimulate LKB1 activity
NC(=O)c1ncn([C@@H]2O[C@H](CO)[C@@H](O)[C@H]2O)c1N [AICA riboside, 5-aminoimidazole-4-carboxamide (AICA) riboside] | robust activation | restored | neither AICA riboside nor phenformin activated AMPK | do not activate LKB1 directly
